Test results published in patent US8044069B2, “Compounds as calcium channel blockers” (Abbott Laboratories, priority 2008, dated 2011).
pIC50: −log10 of the molar value.

Target: human Cav2.2 (Homo sapiens, UniProt Q00975)
Test: Assessment of calcium channel activity using FLIPR (Ca2+ influx in IMR32 cells)
Format: cell-based
Conditions: IMR32 cells endogenously expressing human Cav2.2; 60 minute pre-incubation; 2 μM nifedipine; depolarized with 80 mM KCl, 5 mM CaCl2
Outline: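 FLIPR measured Ca2+ influx triggered by 80 mM KCl depolarization together with a step to 5 mM external CaCl2. Percent inhibition relative to uninhibited activity was fitted sigmoidally for IC50.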

Sequence of human Cav2.2 (Q00975 whole entry): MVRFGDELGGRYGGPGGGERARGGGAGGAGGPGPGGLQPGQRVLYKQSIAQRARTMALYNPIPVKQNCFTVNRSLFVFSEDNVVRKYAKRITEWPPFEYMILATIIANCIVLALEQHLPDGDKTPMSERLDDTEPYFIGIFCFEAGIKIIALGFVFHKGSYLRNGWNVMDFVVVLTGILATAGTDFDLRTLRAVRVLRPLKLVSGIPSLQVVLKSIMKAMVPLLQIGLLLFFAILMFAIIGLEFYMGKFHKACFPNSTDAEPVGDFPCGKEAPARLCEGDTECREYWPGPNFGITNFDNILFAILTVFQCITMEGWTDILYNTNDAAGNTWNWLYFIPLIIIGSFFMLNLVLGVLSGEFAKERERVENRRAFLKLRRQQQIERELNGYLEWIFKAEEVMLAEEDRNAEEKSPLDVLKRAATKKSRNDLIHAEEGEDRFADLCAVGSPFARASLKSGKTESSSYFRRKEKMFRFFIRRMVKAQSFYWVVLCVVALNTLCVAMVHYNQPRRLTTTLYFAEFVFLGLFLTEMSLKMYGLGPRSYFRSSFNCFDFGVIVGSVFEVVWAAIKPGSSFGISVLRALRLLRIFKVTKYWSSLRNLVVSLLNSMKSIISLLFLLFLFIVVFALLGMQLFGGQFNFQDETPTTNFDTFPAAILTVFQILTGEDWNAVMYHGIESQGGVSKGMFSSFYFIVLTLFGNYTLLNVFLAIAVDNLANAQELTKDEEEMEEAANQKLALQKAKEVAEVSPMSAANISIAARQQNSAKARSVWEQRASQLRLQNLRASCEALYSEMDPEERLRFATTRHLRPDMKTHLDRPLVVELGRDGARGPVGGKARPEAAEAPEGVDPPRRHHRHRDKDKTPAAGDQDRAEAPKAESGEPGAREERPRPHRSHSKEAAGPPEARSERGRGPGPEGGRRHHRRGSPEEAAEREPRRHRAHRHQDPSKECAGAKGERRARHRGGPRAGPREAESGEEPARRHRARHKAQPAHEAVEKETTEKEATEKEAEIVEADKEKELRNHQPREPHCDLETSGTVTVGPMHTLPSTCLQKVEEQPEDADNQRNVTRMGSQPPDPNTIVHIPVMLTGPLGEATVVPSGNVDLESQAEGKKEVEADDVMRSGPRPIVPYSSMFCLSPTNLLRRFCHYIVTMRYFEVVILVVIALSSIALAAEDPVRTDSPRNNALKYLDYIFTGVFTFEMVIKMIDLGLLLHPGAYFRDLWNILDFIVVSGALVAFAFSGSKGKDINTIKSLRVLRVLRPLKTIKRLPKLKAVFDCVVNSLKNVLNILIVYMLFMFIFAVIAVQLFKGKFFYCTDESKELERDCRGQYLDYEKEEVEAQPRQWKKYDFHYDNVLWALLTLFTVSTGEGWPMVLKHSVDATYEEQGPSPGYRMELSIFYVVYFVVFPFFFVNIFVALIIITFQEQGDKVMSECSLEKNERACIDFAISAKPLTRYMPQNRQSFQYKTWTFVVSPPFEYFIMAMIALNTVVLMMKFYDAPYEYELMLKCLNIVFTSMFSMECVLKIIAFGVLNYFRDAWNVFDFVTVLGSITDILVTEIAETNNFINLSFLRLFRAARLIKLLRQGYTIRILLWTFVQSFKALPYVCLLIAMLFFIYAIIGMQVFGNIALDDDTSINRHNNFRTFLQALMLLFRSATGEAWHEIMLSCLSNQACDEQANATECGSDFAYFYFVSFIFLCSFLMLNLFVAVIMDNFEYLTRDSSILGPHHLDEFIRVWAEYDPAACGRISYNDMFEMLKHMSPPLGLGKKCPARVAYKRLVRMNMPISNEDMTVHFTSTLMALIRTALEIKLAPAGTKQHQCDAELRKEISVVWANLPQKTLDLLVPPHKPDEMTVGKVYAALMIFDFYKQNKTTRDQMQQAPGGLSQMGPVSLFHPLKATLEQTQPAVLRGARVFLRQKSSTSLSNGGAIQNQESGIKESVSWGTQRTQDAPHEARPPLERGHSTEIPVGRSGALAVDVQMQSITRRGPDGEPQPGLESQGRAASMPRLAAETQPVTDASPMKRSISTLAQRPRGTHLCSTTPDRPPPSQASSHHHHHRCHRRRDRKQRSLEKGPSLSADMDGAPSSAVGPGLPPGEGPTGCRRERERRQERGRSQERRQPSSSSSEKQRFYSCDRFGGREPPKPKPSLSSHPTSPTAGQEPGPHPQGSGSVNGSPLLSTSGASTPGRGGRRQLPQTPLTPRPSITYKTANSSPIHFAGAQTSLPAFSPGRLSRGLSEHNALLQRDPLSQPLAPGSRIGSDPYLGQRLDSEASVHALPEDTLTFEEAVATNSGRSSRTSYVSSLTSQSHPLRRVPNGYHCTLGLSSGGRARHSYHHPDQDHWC
Sequence of human Cav2.2 (P54289 25-951 partner limits assumed): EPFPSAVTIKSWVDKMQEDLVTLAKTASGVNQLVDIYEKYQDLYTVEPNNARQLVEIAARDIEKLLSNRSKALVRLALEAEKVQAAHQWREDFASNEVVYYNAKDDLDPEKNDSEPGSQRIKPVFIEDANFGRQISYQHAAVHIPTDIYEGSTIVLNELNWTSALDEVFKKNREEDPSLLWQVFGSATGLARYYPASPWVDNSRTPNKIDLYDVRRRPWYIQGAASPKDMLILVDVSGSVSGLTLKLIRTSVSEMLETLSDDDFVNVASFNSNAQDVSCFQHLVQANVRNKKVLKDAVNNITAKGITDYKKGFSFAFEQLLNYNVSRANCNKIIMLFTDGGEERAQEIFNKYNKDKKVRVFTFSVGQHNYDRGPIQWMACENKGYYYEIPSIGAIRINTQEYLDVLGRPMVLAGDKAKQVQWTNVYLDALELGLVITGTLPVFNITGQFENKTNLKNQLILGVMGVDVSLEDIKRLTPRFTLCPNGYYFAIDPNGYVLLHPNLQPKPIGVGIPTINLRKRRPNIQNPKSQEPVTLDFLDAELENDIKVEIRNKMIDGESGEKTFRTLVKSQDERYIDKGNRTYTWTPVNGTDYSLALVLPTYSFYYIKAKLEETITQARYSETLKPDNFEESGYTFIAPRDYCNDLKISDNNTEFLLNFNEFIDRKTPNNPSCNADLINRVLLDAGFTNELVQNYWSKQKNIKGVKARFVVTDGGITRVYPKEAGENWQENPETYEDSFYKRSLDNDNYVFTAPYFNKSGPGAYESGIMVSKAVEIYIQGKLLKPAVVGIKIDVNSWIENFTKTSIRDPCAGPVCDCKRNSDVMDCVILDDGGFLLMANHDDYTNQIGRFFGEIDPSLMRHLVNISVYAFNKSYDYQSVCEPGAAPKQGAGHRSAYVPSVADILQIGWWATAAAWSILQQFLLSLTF
Sequence of human Cav2.2 (P54289 952-1103 partner limits assumed): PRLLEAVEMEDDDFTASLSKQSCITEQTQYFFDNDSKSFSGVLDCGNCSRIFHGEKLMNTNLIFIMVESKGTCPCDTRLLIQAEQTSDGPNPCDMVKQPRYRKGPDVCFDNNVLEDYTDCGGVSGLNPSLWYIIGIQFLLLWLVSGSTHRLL
Sequence of human Cav2.2 (P54284 whole entry partner): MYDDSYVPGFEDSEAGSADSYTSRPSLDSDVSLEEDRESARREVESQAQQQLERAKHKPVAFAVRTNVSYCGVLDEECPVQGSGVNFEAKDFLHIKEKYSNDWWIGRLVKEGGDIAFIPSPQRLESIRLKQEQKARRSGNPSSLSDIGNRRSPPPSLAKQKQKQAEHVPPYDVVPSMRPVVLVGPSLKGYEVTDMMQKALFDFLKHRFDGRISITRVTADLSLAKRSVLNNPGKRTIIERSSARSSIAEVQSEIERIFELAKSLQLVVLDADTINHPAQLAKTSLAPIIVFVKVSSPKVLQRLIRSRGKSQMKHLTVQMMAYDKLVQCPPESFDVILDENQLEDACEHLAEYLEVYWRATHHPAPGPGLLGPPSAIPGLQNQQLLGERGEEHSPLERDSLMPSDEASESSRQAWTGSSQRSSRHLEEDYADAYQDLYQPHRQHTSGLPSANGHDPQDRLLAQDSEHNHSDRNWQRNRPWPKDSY

| pIC50 | Structure (SMILES) |
| --- | --- |
| 6.07 | O=C(NC1CC1)c1cccc(S(=O)(=O)N2CCC(c3ccccc3)(c3ccccc3)C2=O)c1 [Example 150, N-cyclopropyl-3-[(2-oxo-3,3-diphenylpyrrolidin-1-yl)sulfonyl]benzamide] |
| 4.74 | O=C1N(S(=O)(=O)c2ccc(C(F)(F)F)cc2Cl)CCC1(c1ccccc1)c1ccccc1 [Example 151, 1-{[2-chloro-4-(trifluoromethyl)phenyl]sulfonyl}-3,3-diphenylpyrrolidin-2-one] |
| 6.14 | O=C(CN1CCC(c2ccc(F)cc2)(c2ccc(F)cc2)C1=O)N1CC2(CCN(Cc3ccccc3)CC2)C1 [Example 152, 1-[2-(7-benzyl-2,7-diazaspiro[3.5]non-2-yl)-2-oxoethyl]-3,3-bis(4-fluorophenyl)pyrrolidin-2-one] |
| 6.07 | O=C(CN1CCC(c2ccc(F)cc2)(c2ccc(F)cc2)C1=O)N1CC2(CCN(Cc3ccc(C(F)(F)F)cc3)CC2)C1 [Example 153, 3,3-bis(4-fluorophenyl)-1-(2-oxo-2-{7-[4-(trifluoromethyl)benzyl]-2,7-diazaspiro[3.5]non-2-yl}ethyl)pyrrolidin-2-one] |
| 5.29 | O=C1N(Cc2nc(-c3ccc4[nH]ncc4c3)no2)CCCC1(c1ccccc1)c1ccccc1 [Example 154, 1-{[3-(1H-indazol-5-yl)-1,2,4-oxadiazol-5-yl]methyl}-3,3-diphenylpiperidin-2-one] |
| 5.36 | O=C1N(CCCc2nc(-c3ccc(C(F)(F)F)cc3)no2)CCC1(c1ccccc1)c1ccccc1 [Example 155, 3,3-diphenyl-1-(3-{3-[4-(trifluoromethyl)phenyl]-1,2,4-oxadiazol-5-yl}propyl)pyrrolidin-2-one] |
| 5.21 | Cc1nc(-c2ccc(C(F)(F)F)cc2)sc1CN1CCC(c2ccccc2)(c2ccccc2)C1=O [Example 156, 1-({4-methyl-2-[4-(trifluoromethyl)phenyl]-1,3-thiazol-5-yl}methyl)-3,3-diphenylpyrrolidin-2-one] |
| 5.28 | Cc1nc(-c2cccc(C(F)(F)F)c2)sc1CN1CCC(c2ccccc2)(c2ccccc2)C1=O [Example 157, 1-({4-methyl-2-[3-(trifluoromethyl)phenyl]-1,3-thiazol-5-yl}methyl)-3,3-diphenylpyrrolidin-2-one] |
| 5.39 | O=C(CN1CCCC(c2ccccc2)(c2ccccc2)C1=O)N1CCC(Oc2ccc(Cl)cc2)CC1 [Example 158, 1-{2-[4-(4-chlorophenoxy)piperidin-1-yl]-2-oxoethyl}-3,3-diphenylpiperidin-2-one] |
| 5.43 | O=C(CN1CCCC(c2ccccc2)(c2ccccc2)C1=O)N1CCC(Oc2cccc(Cl)c2)CC1 [Example 159, 1-{2-[4-(3-chlorophenoxy)piperidin-1-yl]-2-oxoethyl}-3,3-diphenylpiperidin-2-one] |
| 5.52 | O=C(CN1CCCC(c2ccccc2)(c2ccccc2)C1=O)N1CCC(Oc2ccc(F)c(F)c2)CC1 [Example 160, 1-{2-[4-(3,4-difluorophenoxy)piperidin-1-yl]-2-oxoethyl}-3,3-diphenylpiperidin-2-one] |
| 5.24 | COc1ccc(OC2CCN(C(=O)CN3CCCC(c4ccccc4)(c4ccccc4)C3=O)CC2)cc1 [Example 161, 1-{2-[4-(4-methoxyphenoxy)piperidin-1-yl]-2-oxoethyl}-3,3-diphenylpiperidin-2-one] |
| 5.73 | O=C(CN1CCCC(c2ccccc2)(c2ccccc2)C1=O)N1CCC(Oc2cccc(C(F)(F)F)c2)CC1 [Example 162, 1-(2-oxo-2-{4-[3-(trifluoromethyl)phenoxy]piperidin-1-yl}ethyl)-3,3-diphenylpiperidin-2-one] |
| 5.42 | O=C(CN1CCCC(c2ccccc2)(c2ccccc2)C1=O)N1CCC(=NOCc2ccccc2)CC1 [Example 163, 1-(2-{4-[(benzyloxy)imino]piperidin-1-yl}-2-oxoethyl)-3,3-diphenylpiperidin-2-one] |
| 5.69 | O=C(CN1CCCC(c2ccccc2)(c2ccccc2)C1=O)N1CCC(n2nnc3cc(C(F)(F)F)ccc32)CC1 [Example 164, 1-(2-oxo-2-{4-[5-(trifluoromethyl)-1H-1,2,3-benzotriazol-1-yl]piperidin-1-yl}ethyl)-3,3-diphenylpiperidin-2-one] |
| 5.47 | O=C1N(Cc2nc(CCc3ccc(Cl)cc3)no2)CCC1(c1ccc(F)cc1)c1ccc(F)cc1 [Example 165, 1-({3-[2-(4-chlorophenyl)ethyl]-1,2,4-oxadiazol-5-yl}methyl)-3,3-bis(4-fluorophenyl)pyrrolidin-2-one] |
| 5.69 | COc1ccc(CC2(C)CN(C(=O)CN3CCC(c4ccccc4)(c4ccccc4)C3=O)CCN2)cc1OC (stereo not drawn) [Example 167, 1-{2-[3-(3,4-dimethoxybenzyl)-3-methylpiperazin-1-yl]-2-oxoethyl}-3,3-diphenylpyrrolidin-2-one] |
| < 4.52 | O=C(CN1CCC(c2ccccc2)(c2ccccc2)C1=O)NCc1ncco1 [Example 168, N-(1,3-oxazol-2-ylmethyl)-2-(2-oxo-3,3-diphenylpyrrolidin-1-yl)acetamide] |

| pIC50 | Structure (SMILES) |
| --- | --- |
| 5.74 | O=C(CN1CCCC(c2ccccc2)(c2ccccc2)C1=O)N1CCN(Cc2ccc(Cl)cc2Cl)CC1 [Example 169, 1-{2-[4-(2,4-dichlorobenzyl)piperazin-1-yl]-2-oxoethyl}-3,3-diphenylpiperidin-2-one] |
| 5.17 | O=C1N(Cc2nc(-c3ccc(Cl)cc3)no2)CCCC1(c1ccccc1)c1ccccc1 [Example 170, 1-{[3-(4-chlorophenyl)-1,2,4-oxadiazol-5-yl]methyl}-3,3-diphenylpiperidin-2-one] |
| 5.61 | O=C(CN1CCCC(c2ccccc2)(c2ccccc2)C1=O)N1CCC(=C(c2ccc(F)cc2)c2ccc(F)cc2)CC1 [Example 171, 1-(2-{4-[bis(4-fluorophenyl)methylene]piperidin-1-yl}-2-oxoethyl)-3,3-diphenylpiperidin-2-one] |
| 5.75 | O=C(CN1CCCC(c2ccc(F)cc2)(c2ccc(F)cc2)C1=O)N1CCC(c2ccccc2)(c2ccccc2)C1 [Example 172, 1-[2-(3,3-diphenylpyrrolidin-1-yl)-2-oxoethyl]-3,3-bis(4-fluorophenyl)piperidin-2-one] |
| 5.41 | O=C(CN1CCCC(c2ccc(F)cc2)(c2ccc(F)cc2)C1=O)N1CCC(c2ccccc2)(c2ccccc2)CC1 [Example 173, 1-[2-(4,4-diphenylpiperidin-1-yl)-2-oxoethyl]-3,3-bis(4-fluorophenyl)piperidin-2-one] |
| 5.61 | O=C(CN1CCCC(c2ccccc2)(c2ccccc2)C1=O)N1CCC(c2ccccc2)(c2ccccc2)C1 [Example 174, 1-[2-(3,3-diphenylpyrrolidin-1-yl)-2-oxoethyl]-3,3-diphenylpiperidin-2-one] |
| 5.90 | O=C(CN1CCCC(c2ccc(F)cc2)(c2ccc(F)cc2)C1=O)N1CCN(Cc2cccc(C(F)(F)F)c2)CC1 [Example 175, 3,3-bis(4-fluorophenyl)-1-(2-oxo-2-{4-[3-(trifluoromethyl)benzyl]piperazin-1-yl}ethyl)piperidin-2-one] |
| 5.99 | O=C(CN1CCCC(c2ccccc2)(c2ccccc2)C1=O)NC1CN(C(c2ccccc2)c2ccccc2)C1 [Example 176, N-(1-benzhydrylazetidin-3-yl)-2-(2-oxo-3,3-diphenylpiperidin-1-yl)acetamide] |
| 5.47 | O=C1N(Cc2nc(-c3ccc(C(F)(F)F)nc3)no2)CCCC1(c1ccccc1)c1ccccc1 [Example 177, 3,3-diphenyl-1-({3-[6-(trifluoromethyl)pyridin-3-yl]-1,2,4-oxadiazol-5-yl}methyl)piperidin-2-one] |
| 5.11 | O=C(CN1CCCC(c2ccccc2)C1=O)N1Cc2ccc(C(F)(F)F)cc2C1 (stereo not drawn) [Example 178, 1-{2-oxo-2-[5-(trifluoromethyl)-1,3-dihydro-2H-isoindol-2-yl]ethyl}-3-phenylpiperidin-2-one] |
| 5.03 | O=C1N(Cc2nc(-c3cccc(C(F)(F)F)c3)no2)CCCC1(c1ccccc1)c1ccccc1 [Example 179, 3,3-diphenyl-1-({3-[3-(trifluoromethyl)phenyl]-1,2,4-oxadiazol-5-yl}methyl)piperidin-2-one] |
| 6.03 | O=C(CN1CCCC(c2ccccc2)(c2ccccc2)C1=O)NC1CN(Cc2cccc(C(F)(F)F)c2)C1 [Example 180, 2-(2-oxo-3,3-diphenylpiperidin-1-yl)-N-{1-[3-(trifluoromethyl)benzyl]azetidin-3-yl}acetamide] |
| 5.49 | O=C1C(c2ccccc2)CCCN1Cc1nc(-c2ccc(C(F)(F)F)cc2)no1 (stereo not drawn) [Example 181, 3-phenyl-1-({3-[4-(trifluoromethyl)phenyl]-1,2,4-oxadiazol-5-yl}methyl)piperidin-2-one] |
| 5.86 | O=C(CN1CCCC(c2ccccc2)(c2ccccc2)C1=O)N1CCN(C(=O)OCc2ccccc2)CC1 [Example 182, benzyl 4-[(2-oxo-3,3-diphenylpiperidin-1-yl)acetyl]piperazine-1-carboxylate] |
| 6.02 | O=C(CN1CCCC(c2ccccc2)(c2ccccc2)C1=O)NC1CCN(Cc2ccc(F)c(C(F)(F)F)c2)CC1 [Example 183, N-{1-[4-fluoro-3-(trifluoromethyl)benzyl]piperidin-4-yl}-2-(2-oxo-3,3-diphenylpiperidin-1-yl)acetamide] |
| 5.90 | O=C(CN1CCCC(c2ccccc2)(c2ccccc2)C1=O)N1CCN(Cc2ccc(F)c(C(F)(F)F)c2)CC1 [Example 184, 1-(2-{4-[4-fluoro-3-(trifluoromethyl)benzyl]piperazin-1-yl}-2-oxoethyl)-3,3-diphenylpiperidin-2-one] |
| 5.94 | O=C(CN1CCCC(c2ccccc2)(c2ccccc2)C1=O)N[C@H]1CCN(Cc2cccc(C(F)(F)F)c2)C1 [Example 185, 2-(2-oxo-3,3-diphenylpiperidin-1-yl)-N-{(3S)-1-[3-(trifluoromethyl)benzyl]pyrrolidin-3-yl}acetamide] |
| 5.86 | O=C(CN1CCCC(c2ccccc2)(c2ccccc2)C1=O)N[C@@H]1CCN(Cc2cccc(C(F)(F)F)c2)C1 [Example 186, 2-(2-oxo-3,3-diphenylpiperidin-1-yl)-N-{(3R)-1-[3-(trifluoromethyl)benzyl]pyrrolidin-3-yl}acetamide] |
